For data set [1], the system named is rabbit iris-ciliary body. Put plainly: Reduction of ketone in the iris-ciliary body. It counts as in vivo. Particulars: 0.5% hydrochloride salt (w/v); 1.0 hour after instillation. Here is the method: It was then shown that reduction of 1-(isopropylamino)-3-(1-naphthyloxy)-2-propanone takes place in the iris-ciliary body. The compound was administered to the rabbit eye in propylene glycol/ethanol/pH=5.9 ophthalmic buffer (25:25:50 mixture, v/v) solution (concentration 0.5% hydrochloride salt, w/v). The iris-ciliary body was removed, extracted and analyzed 1.0 hour after the instillation of the compound, as described in the preceding paragraph.

Data set [2] relates to rabbit eyes. Put plainly: Local action of the drugs on the eyes (irritation, congestion, redness, lacrimation). It counts as in vivo, rabbit (male New Zealand albino). As to conditions: 1% and 2.5%, both eyes, rabbits.
Data set [3] is described as follows: In vivo distribution-metabolism in ocular tissues of rabbits. As to conditions: rabbit, topical or ocular, 1 %. Here is the method: (§1) Adult male New Zealand albino rabbits weighing 2.5-3.5 kg were used. Standard doses of 100 μl of 1% solution of the drugs in saline solution were administered topically to both eyes of each rabbit. After appropriate time intervals (30, 60 and 120 minutes), the animals were sacrificed. Aqueous humor was obtained by making a single puncture at the limbus using a 25 g×5/8" needle attached to 1 cm^3 syringe. Then the cornea and the iris-ciliary body were isolated. The tissues were pooled and homogenized using a Tekmar SDT tissuemizer in ice cold perchloric acid (0.05M) which contained 0.05% sodium metabisulfite as antioxidant. Samples were then rehomogenized in CH3 OH to prepare 10% homogenates, transferred to micro-filters and centrifuged for 20 minutes at 10000 r/minute to precipitate proteins. Aqueous humor was analyzed as such without any further dilution. Aliquots of 5-20 μl of the 10% tissue homogenate samples were analyzed by HPLC.

Data set [4] has as its system ocular tissues of rabbits. Described as above. Particulars: for Concentration of propranolol: after topical propranolol.HCl 1a 1%; for Tissue concentration: after topical propranolone oxime HCl 6a 1%. On the procedure:
as §1

The conditions of data set [5]: in vivo.
Experimental: (§2) A group of seven adult male Sprague-Dawley rats weighing 150-250 g was used. […] After 1, 3, 5, 20, 40 and 60 minutes, one mL of blood was withdrawn from the jugular vein and dropped immediately into a tared tube containing 1 mL of ice-cold acetonitrile. The tubes were vigorously shaken, centrifuged, decanted and analyzed for propranolol 1a and propranolone oxime 5a by HPLC. Quantitation was done by using a calibration curve obtained by addition of known amounts of propranolol oxime HCl 6a to blood obtained from a control rat pretreated with saline solution.
(§3) A high pressure liquid chromatography (HPLC) method was developed for the assay of the β-blockers and their ketoxime analogs in biological fluids. […] An ASI reverse phase chrompack C18 column, operated at ambient temperature, was used for all separation. The mobile phase used for separation of propranolol 1a and propranolone oxime 5a consisted of water (90 mL), 1-heptanesulfonic acid (1g), 0.1M acetic acid (10 mL), 0.1M triethanolamine (100 mL) and methanol (799 mL).
For data set [6], the system named is iris-ciliary body. As to conditions: topical application to the eye; cited from earlier work.
Data set [7] relates to rabbit iris-ciliary body. Put plainly: Stereospecificity of enzymatic reduction in iris-ciliary body (chiral derivatization HPLC). Particulars: iris-ciliary body of rabbit treated with the oxime. The class given is in vivo. The source says:
Finally, it was shown that the enzymatic reduction of the ketone is stereospecific. The extract residue from the iris-ciliary body of rabbit treated with 1-(isopropylamino)-3-(1-naphthyloxy)-2-propranolone oxime was reacted with the chiral reagent, 2,3,4,6-tetra-O-acetyl-β-D-glucoppyranosyl isocyanate, in acetonitrile and analyzed by the HPLC procedure of Sedman et al, J. Chromatogr. 278, 199-203, 1983 (Supelcosil LC-18 reversed-phase column of 7.5 cm×4.6 mm with 3 μm particles, mobile phase: 60% acetonitrile in 0.02M aqueous monobasic ammonium phosphate solution, 1 mL/min flow rate, UV detection at 254 nm).

Data set [8] is described as follows: In vivo distribution-metabolism in rat's blood.
Experimental: as §2, §3
For data set [9] the following is noted: cited from earlier work.
Setting [10] is: aqueous humor, Concentration of propranolol.
Setting [11] is: aqueous humor, Tissue concentration.
The mark [12] stands for this setting: cornea, Concentration of propranolol.
Where [13] appears, read: iris-ciliary body, Tissue concentration.

`CC(C)NCC(=O)COc1cccc2ccccc12` [1-(isopropylamino)-3-(1-naphthyloxy)-2-propanone]: the “enzymatic reduction product in iris-ciliary body” value in data set [1] is given as “The enzymatic reduction product, 1-(isopropylamino)-3-(1-naphthyloxy)-2-propanol, i.e. propranolol, was clearly identified”.

For `CC(C)NCC(O)COc1cccc2ccccc12` (stereo not shown) [Propranolol 1a, 1-(isopropylamino)-3-(1-naphthyloxy)-2-propanol], the ocular irritation result in [2] is “ocular irritation which always accompanied propranolol administration at both dose levels”. For the same compound, the concentration at 0.5 h in data set [3] (setting [10]) stood at 1280 ± 190 ng/g; in data set [3] (setting [11]) it was 40 ± 20 ng/g; in data set [3] (setting [12]), 47100 ± 5570 ng/g; in data set [3] (cornea, Tissue concentration), 1680 ± 750 ng/g; in data set [3] (iris-ciliary body, Concentration of propranolol), 8050 ± 1470 ng/g; in data set [3] (setting [13]), 2110 ± 290 ng/g. For the same compound, the concentration at 1 h turned out to be 260 ± 80 ng/g in data set [3] (setting [10]); 710 ± 110 ng/g in data set [3] (setting [11]); 14500 ± 2970 ng/g in [3] (setting [12]); 1140 ± 290 ng/g in data set [3] (cornea, Tissue concentration); 1790 ± 200 ng/g in data set [3] (setting [13]). The concentration at 2 h in [3] (cornea, Tissue concentration) turned out to be 1140 ± 220 ng/g; in data set [3] (setting [13]), 430 ± 110 ng/g. The Concentration of propranolol in data set [4] (aqueous humor, 120 min.) was 0.00 ± 0.00 mcg/g tissue; in data set [4] (cornea, 120 min.), 0.00 ± 0.00 mcg/g tissue; in [4] (iris-ciliary body, 60 min.), 0.00 ± 0.00 mcg/g tissue; in data set [4] (iris-ciliary body, 120 min.), 0.00 ± 0.00 mcg/g tissue. In data set [4] (aqueous humor, 120 min.), this compound came in with a Tissue concentration of 0.00 ± 0.00 mcg/g tissue. Besides, the “detection of propranolol in eye compartments” value in data set [4] (rabbit, in vivo) is reported as “could be detected in measurable concentrations in the different eye compartments for the first two hours”. Besides, the “detection of propranolol in eye tissues” value in data set [4] (rabbit, in vivo) is listed as “could not be detected in any of the tested eye tissues”. The “detection of propranolol in iris-ciliary body” value in data set [4] (rabbit, in vivo) is reported as “completely disappeared from the iris-ciliary body”. Further, in data set [5], the “detection of propranolol in rat's blood” value is “not detected in rat's blood”.

Regarding `CNCC(=O)c1ccc(O)c(O)c1` [adrenalone], the “conversion to adrenaline in the eye” value in data set [6] is listed as “not adrenalone itself can be converted via a reduction-hydrolysis sequence to deliver adrenaline”.

Consider `CC(C)NCC(COc1cccc2ccccc12)=NO` [propranolone oxime 5a, 1-(Isopropylamino)-3-(1-naphthyloxy)-2-propanone oxime], for which the concentration at 0.5 h was 820 ± 90 ng/g in data set [3] (setting [11]); 23800 ± 4910 ng/g in data set [3] (cornea, Tissue concentration); 7790 ± 1100 ng/g in [3] (setting [13]). In addition, the concentration at 1 h in data set [3] (setting [11]) turned out to be 800 ± 60 ng/g; in [3] (cornea, Tissue concentration), 16400 ± 5800 ng/g. In addition, the Tissue concentration is listed as 0.00 ± 0.00 mcg/g tissue in data set [4] (aqueous humor, 120 min.); 0.00 ± 0.00 mcg/g tissue in [4] (cornea, 120 min.); 0.00 ± 0.00 mcg/g tissue in data set [4] (iris-ciliary body, 60 min.); 0.00 ± 0.00 mcg/g tissue in data set [4] (iris-ciliary body, 120 min.). For the same compound, the “stereospecificity: enantiomer of propranolol formed” value in data set [7] is on record as “The sole presence of the S-(-)-enantiomer of 1-(isopropylamino)-3-(1-naphthyloxy)-2-propanol (propranolol) was established”. In data set [8] (after i.v. oxime, disappeared 5 minutes after injection), the metabolite in blood entry was “another more polar compound was detected”. Besides, in data set [8] (blood, iv, 6 mg/kg), the half-life stood at 7.64 ± 0.55 min. In addition, in data set [8] (one hour after i.v. administration), the “presence of oxime in blood” value was “completely disappeared from the blood”.

In the case of `CC(C)(C)NC[C@H](O)COc1nsnc1N1CCOCC1` [timolol], the “detection of parent β-adrenergic antagonist in eye compartments” value in data set [4] (after ophthalmic 6b, low dose level used) is given as “could not be found in any of the eye compartments”. Besides, in [9], the “side effects secondary to topical ocular administration” value is “a vast number of serious cardiovascular, respiratory, CNS and ocular side effects”.

By half-life is commonly meant how long it takes for the measured level to halve. Low values mean rapid decline, high ones slow decline.

The record behind these values is US5017618A, “Labile derivatives of ketone analogs of 3-substituted-1-alkylamino-2-propanols and their use as beta-adrenergic blockers” (priority 1989, dated 1991).
